Earlier results in patent US20190388365A1, “C[…] NEURO-DEGENERATIVE DISEASES AND SIDE-EFFECTS ASSOCIATED WITH COGNITION EFFECTING PHARMACEUTICALS” (priority 2015, published 2019).

System: patients receiving morphine
Details: limited clinical trials

## NC(=O)C[S+]([O-])C(c1ccccc1)c1ccccc1 (racemic) [Modafinil, benzhydrylsulfinylacetamide]
  effect on sleepiness and confusion associated with morphine delivery: reverses the sleepiness and even confusion associated with morphine delivery
